Assays:
[1] = system: diamondback moth (Plutella xylostella); assay: Insecticidal effect on diamondback moth (Test Example 1); format: in vivo; details: diamondback moth; judged by the criterion of Test Example 1
Summary of the method: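 Eggs laid by adult moths on Chinese cabbage seedlings, which were immersed in test solution, air-dried and kept at 25 °C. Hatched insects counted 6 days after immersion and mortality calculated, with effect graded by criterion; triplicate groups of 10 insects.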

[2] = system: rice leafroller (Cnaphalocrocis medinalis); assay: Insecticidal effect on rice leafroller (Test Example 3); format: in vivo; details: 500 ppm, rice lamina dip, third-instar larvae of rice leafroller, 4 days after inoculation, 25° C., humidity 70%
Summary of the method: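 Groups of 10 third-instar larvae, in triplicate, are placed on air-dried lamina resting on wet filter paper. Incubation runs four days at 25° C with 70% humidity before survivors and dead are tallied.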

SMILES	Insecticidal effect (Test Example 1), judged from mortality [1]	Insecticidal effect (Test Example 3), judged from mortality [2]
Cc1cc(C(F)(F)C(F)(F)F)ccc1NC(=O)c1c(I)cccc1C(=O)NC(C)CO (stereo not shown) [compound 1465]	A (100)	A (100)
Cc1cc(C(F)(F)C(F)(F)F)ccc1NC(=O)c1cccc(F)c1C(=O)NCc1ccccc1 [compound 1470]	A (100)	A (100)
CCNC(=O)c1c(Cl)cccc1C(=O)Nc1ccc(C(F)(F)C(F)(F)F)cc1F [compound 1488]	A (100)	A (100)
CCNC(=O)c1c(Cl)cccc1C(=O)Nc1ccc(C(F)(F)C(F)(F)C(F)(F)F)cc1F [compound 1490]	A (100)	A (100)
CCCNC(=O)c1c(Cl)cccc1C(=O)Nc1ccc(C(F)(F)C(F)(F)F)cc1Cl [compound 1492]	A (100)	A (100)
CCCNC(=O)c1c(Cl)cccc1C(=O)Nc1ccc(C(F)(F)C(F)(F)C(F)(F)F)cc1F [compound 1493]	A (100)	A (100)
CCNC(=O)c1c(F)cccc1C(=O)Nc1ccc(C(F)(F)C(F)(F)F)cc1F [compound 1510]	A (100)	A (100)
CC(C)NC(=O)c1c(F)cccc1C(=O)Nc1ccc(C(F)(F)C(F)(F)F)cc1F [compound 1514]	A (100)	A (100)
CC(C)NC(=O)c1cccc(F)c1C(=O)Nc1ccc(C(F)(F)C(F)(F)F)cc1Cl [compound 1517]	A (100)	A (100)
Cc1cc(OC(F)(F)F)ccc1NC(=O)c1cccc(I)c1C(=O)NC(C)(C)CO [compound 1519]	A (100)	A (100)
Cc1cc(C(F)(F)C(F)(F)F)ccc1NC(=O)c1cccc(Cl)c1C(=O)NCc1ccccc1C(F)(F)F [compound 1523]	A (100)	A (100)
CCN(CC)C(=O)c1c(F)cccc1C(=O)Nc1ccc(OC(F)(F)F)cc1C [compound 1527]	A (100)	A (100)
CCN(CC)C(=O)c1c(F)cccc1C(=O)Nc1ccc(OC(F)F)cc1C [compound 1528]	A (100)	A (100)
CCN(CC)C(=O)c1c(F)cccc1C(=O)Nc1ccc(OC(F)(F)C(F)F)cc1C [compound 1529]	A (100)	A (100)
CCN(CC)C(=O)c1c(F)cccc1C(=O)Nc1ccc(C(F)(F)C(F)(F)F)cc1F [compound 1530]	A (100)	A (100)
CCN(CC)C(=O)c1c(F)cccc1C(=O)Nc1ccc(C(F)(F)F)cc1 [compound 1547]	A (100)	A (100)
CCN(CC)C(=O)c1c(F)cccc1C(=O)Nc1ccc(OC(F)(F)F)cc1 [compound 1548]	A (100)	A (100)
Cc1cc(C(F)(F)C(F)(F)F)ccc1N(C)C(=O)c1cccc(Cl)c1C(=O)N(C)Cc1ccccc1 [compound 1553]	A (100)	A (100)

SMILES	Insecticidal effect (Test Example 1), judged from mortality [1]	Insecticidal effect (Test Example 3), judged from mortality [2]
CCN(CC)C(=O)c1c(I)cccc1C(=O)Nc1ccc(OC(F)F)cc1C [compound 1555]	A (100)	A (100)
CCCN(CC)C(=O)c1c(I)cccc1C(=O)Nc1ccc(OC(F)F)cc1C [compound 1575]	A (100)	A (100)
Cc1cc(C(F)(F)C(F)(F)F)ccc1NC(=O)c1cccc(Cl)c1C(=O)N(C)Cc1cccc(Cl)c1 [compound 1578]	A (100)	A (100)
CCCN(CC)C(=O)c1c(F)cccc1C(=O)Nc1ccc(OC(F)(F)F)cc1 [compound 1582]	A (100)	A (100)
CCCN(CC)C(=O)c1c(F)cccc1C(=O)Nc1ccc(OC(F)F)cc1 [compound 1583]	A (100)	A (100)
CCCN(CC)C(=O)c1c(F)cccc1C(=O)Nc1ccc(C(F)(F)C(F)(F)F)cc1Cl [compound 1584]	A (100)	A (100)
C#CC(C)(C)NC(=O)c1c(Cl)cccc1C(=O)Nc1ccc(OC(F)F)cc1C [compound 1588]	A (100)	A (100)
C=CC(C)(C)NC(=O)c1cccc(Cl)c1C(=O)Nc1ccc(C(F)(F)C(F)(F)F)cc1C [compound 1589]	A (100)	A (100)
CC(C)NC(=O)c1c(I)cccc1C(=O)Nc1ccc2c(c1)OC(F)(F)C2(F)F [compound 1620]	A (100)	A (100)
CC(C)NC(=O)c1c(I)cccc1C(=O)Nc1ccc2c(c1Cl)OC(F)(F)C(F)(F)O2 [compound 1626]	A (100)	A (100)
CC(C)NC(=O)c1ccccc1C(=O)Nc1ccc(Cl)cc1F [compound 1632]	A (100)	A (100)
Cc1cc2oc(C(F)(F)F)nc2cc1NC(=O)c1cccc(I)c1C(=O)NC(C)C [compound 1641]	A (100)	A (100)
CC(C)NC(=O)c1c(Cl)cccc1C(=O)Nc1cc2c(cc1Cl)OC(F)(F)C(F)(F)O2 [compound 1643]	A (100)	A (100)
Cc1nc(-c2cccc(NC(=O)c3cccc(I)c3C(=O)NC(C)C)c2)co1 [compound 1659]	A (100)	A (100)
CC(C)NC(=O)c1c(I)cccc1C(=O)Nc1ccc(C(F)(C(F)(F)F)C(F)(F)F)c2c1CCCC2 [compound 1726]	A (100)	A (100)
CC(C)(C)NC(=O)c1c(I)cccc1C(=O)Nc1ccc(C(F)(C(F)(F)F)C(F)(F)F)c2c1CCCC2 [compound 1727]	A (100)	A (100)
CC(C)NC(=O)c1c(I)cccc1C(=O)Nc1cccc2c1OC(F)(F)O2 [compound 1742]	A (100)	A (100)

— US6362369B1, “Phthalic acid diamide derivatives fluorine-containing aniline compounds as starting material, agricultural and horticultural insecticides, and a method for application of the insecticides” (Nihon Nohyaku Co., Ltd., priority 1997, dated 2002)
